Experimental findings from patent US20250109120A1, “INDOLINE DERIVATIVES FOR TREATMENT AND/OR PREVENTION OF TUMOR OR CELL PROLIFERATIVE AND FIBROSIS DISEASES” (NATIONAL TAIWAN UNIVERSITY, priority 2023, published 2025) are described below.

Format in all cases: cell-based, human
The subject of one data set is prostate cancer cells. Description: TGF-β1-induced EMT proteins and gene expression, western blot and real-time PCR. As to the method: Cells were exposed to compound k as indicated concentrations or senexin A (10 μM) in the presence or absence of TGF-β1 (10 ng/mL) for 24 h, the proteins and mRNA levels of E-cadherin, N-cadherin, Snail, vimentin, α-SMA were determined by western blot (A) or real-time PCR (B). Results are shown as the mean±SEM from at least three independent experiments (**p<0.01, ***p<0.001 vs. control group; #p<0.05, ##p<0.01, and ###p<0.001 vs. TGF-β1 treatment group).
Total RNA was isolated from cells using TRIzol reagent (Invitrogen). […] Quantitative PCR was performed using TaqMan One Step RT-PCR mastermix (ABI) in a total reaction volume of 20 μL per reaction, consisting of 10 μL of SYBR green PCR master mix (Applied Biosystems), 5 pmol of each forward/reverse primer, and 2 μL of cDNA. […] The threshold cycle (Ct) in the exponential phase of amplification was detected, the relative mRNA expression level was determined by calculating the ΔΔCt values, and the fold change was expressed as 2^−ΔΔCt. […]
The cells were incubated in lysis buffer for 10 min at 4° C., scraped off, incubated on ice for an additional 10 min and then centrifuged at 17,000 g for 30 min at 4° C. […] Bound antibodies will be measured using an ECL reagent and exposed to a photographic film. […]
Background: Immunoblotting shows a protein as a band on a membrane.

In a further data set the test system is PC-3 cells. Description: MTT cell cytotoxicity assay. As to the method: (§1) FIGS. 2A-2D show the evaluation of CDK8 inhibition by compound k. […] Cell viability was measured by MTT assay, and the 50% inhibitory concentration (IC50) values were calculated by a sigmoidal dose-response equation. […] Whole-cell lysates were subjected to western blotting with the indicated antibodies. The results are shown as the mean t SEM from at least three independent experiments (*p<0.05, **p<0.01, and ***p<0.001 vs. control group; #p<0.05 vs. relevant control).
(§2) Cell cytotoxicity was evaluated using the MTT assay. […] Then, 0.5 mg/mL MTT was added, and the plates were incubated for an additional 2 h at 37° C. The cells were then pelleted and lysed in 100 μL of dimethyl sulfoxide, and the absorbance at 550 nm was measured with a microplate reader.
Background: Tetrazolium assays rely on reduction of a dye to a coloured formazan, in cell work by metabolically active cells.

Data set [1] relates to DU145 cells. Description: MTT cell cytotoxicity assay. As to the method:
as §1, §2

A further data set relates to A549 cells. Nature of the data set: MTT cell viability assay. As to conditions: 12, 24 and 48 h, up to 10 μM. As to the method:
FIGS. 4A-4B show the inhibition of epithelial-to-mesenchymal transition protein expressions by CDK8 inhibitors in human alveolar epithelial cells. […] Cell lysates were subjected to a Western blot analysis using the indicated antibodies. Results are shown as the mean t SEM from three independent experiments. *p<0.05, and ***p<0.001 compared to the control group; #p<0.05, ##p<0.01, and ###p<0.001 compared to the TGF-β1-treated group. […] Cell viabilities were determined by an MTT assay. Results are shown as the mean t SEM of three independent experiments.
Cell cytotoxicity was measured by a colorimetric MTT assay. […] After various treatments, 1 mg/mL of MTT was added, and the plates were incubated at 37° C. for an additional 2 h. Then cells were pelleted and lysed with 10% sodium dodecylsulfate (SDS) with 0.01 M HCl, and the absorbance at 570 nm was measured on a microplate reader.

The subject of data set [2] is DU145 cells. Nature of the data set: TGF-β1-induced morphology change and wound migration. The conditions noted are these: TGF-β1 10 ng/mL. As to the method: Images of the morphology of cells were taken at ×100 magnification. […] The cells were incubated with or without TGF-β1 (10 ng/mL) and compound k (2.5 and 10 μM), allowed to migrate into the wound area for 48 h and photographed. Cell migration into the wound was quantified using ImageJ software; the white solid line indicates time zero. The quantitative assessment of the mean number of cells in the scratch area is expressed as the mean t SEM from at least three independent experiments (***p<0.001 vs. control group; ##p<0.01 and ###p<0.001 vs. TGF-β1 treatment group). (C) PC-3 cells were incubated with 10 μM compound k/senexin A for 1 h, subsequently treated with TGF-β1 (10 ng/mL) for 24 h and incubated with the indicated antibodies and DAPI. The immunofluorescence images were photographed by a ZEISS ApoTome.2 microscope. Images were taken at 600× magnification.

In data set [3] the test system is DU145 cells. Description: TGF-β/Smad/RNA polymerase II signaling, western blot, fractionation, immunoprecipitation. As to conditions: 10 μM. As to the method:
Whole-cell lysates were subjected to western blotting with the indicated antibodies. […] The proteins in the cytosol and nucleus were detected by western blotting analysis, and the proteins expression in the nucleus were quantified. […] The results are shown as the mean±SEM from at least three independent experiments (*p<0.05, **p<0.01, and ***p<0.001 vs. control group; #p<0.05, ##p<0.01, and ###p<0.001 vs. TGF-β1 treatment group; § p<0.05, §§ p<0.01 vs. indicated group).
The cells were incubated in lysis buffer for 10 min at 4° C., scraped off, incubated on ice for an additional 10 min and then centrifuged at 17,000 g for 30 min at 4° C. Protein samples were electrophoresed on SDS-PAGE gels, transferred to PVDF membranes and blocked with 5% fat-free milk in PBS for 30 min at room temperature. Immunoblotting was performed overnight with primary antibodies in PBS at 4° C., followed by incubation with HRP-conjugated secondary antibodies for 1 h at room temperature. Bound antibodies will be measured using an ECL reagent and exposed to a photographic film. In the immunoprecipitation assay, cell lysates were immunoprecipitated with 1 μg of antibody and A/G agarose beads overnight at 4° C. After washing the precipitated beads three times with 1 mL ice-cold cell lysis buffer, bound immune complexes were separated by 10% SDS-PAGE and analyzed with immunoblotting.

By IC50 is commonly meant the point on the concentration scale where inhibition reaches its midpoint. High values mean lower potency, low ones higher potency. As to `CNC(=O)c1cc(Oc2ccc(NS(=O)(=O)c3ccc4c(c3)C(=C(C)C)C(=O)N4)c(F)c2)ccn1` [Compound k, 4-(3-Fluoro-4-((2-oxo-3-(propan-2-ylidene)indoline)-5-sulfonamido)phenoxy)-N-methylpicolinamide], in the data set with prostate cancer cells (TGF-β1 10 ng/mL, 24 h), the “TGF-β1 effects on E-cadherin, N-cadherin, Snail, vimentin” value is reported as “attenuated the effects of TGF-β1”. Moreover, the “EMT protein inhibitory effects compared with senexin A” value with prostate cancer cells (senexin A 10 μM) is on record as “more potent”. The IC50 was greater than 30 µM in the data set with PC-3 cells (PC-3, 24 h); greater than 30 µM with PC-3 cells (PC-3, 72 h); greater than 30 µM with DU145 cells [1] (DU145, 24 h); greater than 30 µM with DU145 cells [1] (DU145, 72 h). In the data set on A549 cells, the cell viability result is on record as “did not significantly change”. In addition, in the data set on DU145 cells [2] (2.5 and 10 μM, 48 h), the “TGF-β1-induced migration (wound closure)” value is “significantly inhibited”. The TGF-β1-induced morphological transition entry in the data set with DU145 cells [2] (24 h) is listed as “appeared to reverse these effects”. In the data set with DU145 cells [3] (TGF-β1 10 ng/mL), the “binding of CDK8 to RNA polymerase II (Ser2/5), Smad3 and Pin1 (immunoprecipitation)” value is “inhibited”. The “phosphorylation of Smad3 and RNA polymerase II in nuclear fraction” value with DU145 cells [3] (TGF-β1 10 ng/mL 1 h) is on record as “markedly suppressed”. Besides, the “expression of mesenchymal markers (N-cadherin, Snail)” value in the data set with DU145 cells [3] (TGF-β1 10 ng/mL 24 h) is “significantly downregulated”.
